The test system of data set [1] is SH-SY5Y cells. The experiment in a line: Cell viability, MTS assay. In kind it is cell-based, human. To be noted: for average cell viability: 24 hours; for toxicity to neuroblastoma cells: 0.1 to 1 μM. Here is the method: Synthesized compounds were added to a 3-dram screw capped vial, followed by DMSO (ca. 5 mL) to make a 10 mM stock solution. The test stock solution was made and used on the same day. 100 μL of the 10 mM stock solution was diluted into 900 μL of DMSO (1:9 dilution) to make 1 mM stock solution. 100 μL of the 1 mM stock solution was diluted into 900 μL of DMSO (1:9 dilution) to make a 100 μM solution. 100 μL of the 100 μM stock solution was diluted into 900 µL of DMSO (1:9 dilution) to make a 10 μM stock solution. The test solutions were prepared by using the dilution ratio of 10 μL stock solutions into 990 μL (1:99 dilution) of Complete Culture Media (CCM) to afford drug solution (1% DMSO) from 0.1 to 100 μM. For positive control: 10 mg/mL of TritonX-100 is diluted in CCM. For negative control: 1 μL of DMSO is dissolved in every 100 μL of CCM.
Cells were grown in bulk in 100 mm petri dishes. On the day of use, the cell culture media was removed from the dish. SH-SY5Y cells were washed with PBS, then 0.25% Trypsin/EDTA was used to aid in detaching the cells, CCM was then added to neutralize the Trypsin/EDTA and wash the cells from the dish. Washed cells are collected in a centrifuge tube for concentration. After centrifugation at 2000 RPM for 5 minutes, the cells were re-suspended in CCM. The final concentration of cells was 5×10^3 per 100 μL The 5000 cells/100 μL solution was seeded into a clear, flat bottomed, 96-well microliter plate and incubated for 24 hours at 37° C. in 5% CO2. After 24 hours, the media was removed and replaced by 100 μL CCM containing the drug/positive/negative control and was incubated at 37° C. in a 5% CO2 for 24 hours. After this incubation period, 20 μL of MTS solution was added to each well via a multichannel pipette. The plates were shaken by hand to thoroughly mix the MTS solution into the media and incubated at 37° C. in a 5% CO2 for 4 hours. The absorbance was read at 490 nm using the Synergy Neo microplate reader.
A general note: Formazan colour is commonly taken as a measure of viable cells.

Data set [2] deals with SH-SY5Y cells. The experiment in a line: Western blot for LC3-II (autophagy induction with bafilomycin-A1). In kind it is cell-based, human. The procedure:
(FIG. 35B). […] In a dose dependent manner with a maximum of 6 μM.
2-n-hexyl-LKE-P drug solutions in CCM from 0.1 to 100 μM were prepared as above for the viability assay except that the drug solutions contained 10 nM bafilomycin A1. For positive control: 50 nM rapamycin in CCM containing 10 nM bafilomycin A1 was used. For negative control: 1 μL of DMSO is dissolved in every 100 μL of CCM containing 10 nM bafilomycin A1. When SH-SY5Y cells were 85-90% confluent, 300,000 cells per well were seeded into 12-well plates. Cells were exposed to four concentrations of 2-n-hexyl-LKE-P, positive control and negative control for 4 hours at 37° C. in 5% CO2 in air atmosphere. Subsequently, the cells were washed with PBS, next, 0.25% Trypsin/EDTA was used to aid in detaching the cells and CCM was then added to neutralize the Trypsin/EDTA and wash the cells from the dish. Washed cells were collected in a centrifuge tube for concentration. After centrifugation at 2000 RPM for 5 minutes, the cells were re-suspended in PBS and re-centrifuged to pellets. The supernatant was then discarded and the cell pellets were frozen in −20° C. freezer. 50 μL lysis buffer (RIPA buffer plus, 1 mM sodiumorthovanadate, 5 mM β-glycerophosphate and 1:200 mammalian protease inhibitor cocktail) was added to the cells and the cells were re-suspended in the lysis buffer. […] The membranes were then ready for imaging.

In the next data set the test system is PINK1^B9 flies. The experiment in a line: Fly sleep behavior. In kind it is in vivo, Drosophila melanogaster. The procedure:
2-n-hexyl-LKE-P was dissolved in DMSO and supplemented into a warm solution of minimal media (5% sucrose, 2% agarose and water, 60° C.) to a final concentration of 10, 100 and 1000 μM. Freshly eclosed adult flies were transferred to minimal media containing the drug for one day followed by the experiments. Flies were transferred individually, under CO2 anesthesia, into 5 mm×65 mm (outside diameter×length) polycarbonate recording tubes with food on one end and yarn plugs on the other. Sleep parameters were continuously evaluated using the TriKinetics Drosophila activity monitoring system. Sleep is defined as 5 min or more of continuous inactivity, the minimum amount of time to qualify as a single sleep bout. Zeitgeber time (ZT) 0 is defined as the time of lights on, and ZT12 is defined as the time of lights off. Mobility (activity) was also monitored and data tabulated based on the number of beam counts, and diurnal variations were calculated. The sleep and mobility data were collected and analyzed.

Each structure is given as a SMILES string. “Also recorded” adds a separate entry of the source.

`CCCCCCC1=C(P(=O)(O)O)N[C@H](C(=O)OCC)CS1` [2-n-hexyl-LKE-P]: in the data set with SH-SY5Y cells [1], the “concentration at which toxicity begins to show” value came to 10 µM. Besides, the average cell viability with SH-SY5Y cells [1] (10 μM) was 83%; in the data set with SH-SY5Y cells [1] (100 μM) it was 63%. The entries for the “toxicity to neuroblastoma cells” value with SH-SY5Y cells [1] and in the data set with SH-SY5Y cells [1] (listed as 2-n-heyxl-LKE-P) were “not toxic” and “no toxicity”, respectively. In the data set with SH-SY5Y cells [2] (in the presence of bafilomycin-A1), the “autophagy stimulation (LC3-I, LC3-II)” value is recorded as “stimulates autophagy in a dose dependent manner; also recorded: able to stimulate autophagy”. For the same compound, the “concentration of maximum autophagy stimulation” value in the data set with SH-SY5Y cells [2] (in the presence of bafilomycin-A1, 0.1 to 10 μM tested) was determined as 6 µM. The “sleep of treated wild-type flies versus vehicle-treated wild-type flies” value in the data set on PINK1^B9 flies (Day 1 or Day 8) is recorded as “No differences were observed”. The “daytime sleep of PINK1^B9 flies” value with PINK1^B9 flies (day 1, 1000 μM) is “did not change the sleeping pattern and the daytime sleeping time; also recorded: did not show any changes”; with PINK1^B9 flies (day 8 (one week), 1000 μM) it was “decreased the daytime sleeping time; also recorded: reversal of excessive daytime sleep”.

The record behind these values is US12139505B2, “Compositions useful in therapy of autophagy-related pathologies, and methods of making and using the same” (The University of Toledo, priority 2017, dated 2024).
